The numbers were not newly measured in patent publication US7396658B2, “Methods for screening HIF like ouabain-resistant Na+—K+-ATPase agents” (priority 1998, dated 2008), which cites them from elsewhere.

Data set [1] has as its target T1, ouabain-resistant α1 isoform (obtained from rat kidney) (Rattus norvegicus, UniProt P06685).
T1 construct: the ouabain-resistant α1 isoform (obtained from rat kidney); host or cells: rat kidney tissue
The note with it: α1 from rat kidney vs α2/α3 from rat brain axolemma; factor greater.

Data set [2] addresses ouabain-resistant Na^+—K^+-ATPase (Rattus norvegicus, UniProt P06685). As to conditions: generally needed.

The structures appear in SMILES notation.

For the compound `C[C@@H]1O[C@@H](O[C@H]2C[C@@H](O)[C@]3(CO)[C@H]4[C@H](O)C[C@]5(C)[C@@H](C6=CC(=O)OC6)CC[C@]5(O)[C@@H]4CC[C@]3(O)C2)[C@H](O)[C@H](O)[C@H]1O` [ouabain], in data set [1], the “concentrations of ouabain required for inactivation of the ouabain-resistant α1 isoform, relative to that for inactivating the ouabain-sensitive α2/α3 isoforms” value is recorded as 10^2-10^3. Also, the “concentration needed to inhibit ouabain-resistant Na+-K+-ATPases relative to that inhibiting ouabain sensitive Na+-K+-ATPase” value in data set [2] is recorded as not below 100 fold.
